Assay results taken from patent US10800782B2, “Inhibitors of cellular metabolic processes” (Agios Pharmaceuticals, Inc., priority 2016, dated 2020).
Each block holds one molecule with its values, some of them ahead of it.

Molecular target: T1, MAT2A (Homo sapiens, UniProt P31153)
T1 construct: His6; made in house; host or cells: SF9 insect cells
Assay: MAT2A biochemical assay (colorimetric inorganic phosphate detection, PiColorLock)
Conditions: recombinant His6-tagged MAT2A 1 μg/ml; 60 minutes preincubation at 25° C.; L-Met 80 μM, ATP 100 μM; 60 minutes reaction; read at 623 nm; read-out: MAT2A Inhibition Score
Procedure, shortened: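 His6-tagged human MAT2A (SF9-expressed, 1 μg/ml) converting L-Met and ATP to SAM in Tris pH 8.0, 50 mM KCl, 15 mM MgCl2, 300 uM EDTA, 0.005% BSA; 60 min at room temperature. Released phosphate detected colorimetrically with malachite green phosphomolybdate. Ten-point, three-fold compound dilution series.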

T1 sequence (P31153 whole entry): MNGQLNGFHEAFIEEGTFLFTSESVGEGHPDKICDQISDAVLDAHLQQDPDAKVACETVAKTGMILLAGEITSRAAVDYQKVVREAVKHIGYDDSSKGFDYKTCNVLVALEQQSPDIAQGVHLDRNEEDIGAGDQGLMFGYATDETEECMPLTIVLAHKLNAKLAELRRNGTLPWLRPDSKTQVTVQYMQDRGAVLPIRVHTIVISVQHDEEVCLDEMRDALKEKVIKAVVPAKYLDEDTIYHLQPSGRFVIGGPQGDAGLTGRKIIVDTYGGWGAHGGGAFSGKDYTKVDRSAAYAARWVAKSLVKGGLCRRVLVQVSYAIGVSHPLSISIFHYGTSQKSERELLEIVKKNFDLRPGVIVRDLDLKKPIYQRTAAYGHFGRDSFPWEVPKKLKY

Structure (SMILES): COc1ccc(-c2c(Nc3ncncn3)[nH]c3c(-c4ccccc4)c(-c4ccccc4)nn3c2=O)cc1 [Compound 132, 5-((1,3,5-triazin-2-yl)amino)-6-(4-methoxyphenyl)-2,3-diphenylpyrazolo[1,5-a]pyrimidin-7(4H)-one]
- IC50: < 100 nM

Structure (SMILES): COc1ccc(-c2c(Nc3ccc([N+](=O)[O-])cn3)[nH]c3c(-c4ccccc4)c(-c4ccccc4)nn3c2=O)cc1 [Compound 107, 6-(4-methoxyphenyl)-5-((5-nitropyridin-2-yl)amino)-2,3-diphenylpyrazolo[1,5-a]pyrimidin-7(4H)-one]
- IC50: < 100 nM

Structure (SMILES): COc1ccc(-c2c(C)[nH]c3c(-c4cc[nH]c4)c(-c4ccccc4)nn3c2=O)cc1 [Compound 220, 6-(4-methoxyphenyl)-5-methyl-2-phenyl-3-(1H-pyrrol-3-yl)pyrazolo[1,5-a]pyrimidin-7(4H)-one]
- IC50: < 100 nM

Structure (SMILES): COc1ccc(-c2c(Nc3ccncn3)[nH]c3c(-c4ccccc4)c(-c4ccccc4)nn3c2=O)cc1 [Compound 116, 6-(4-methoxyphenyl)-2,3-diphenyl-5-(pyrimidin-4-ylamino)pyrazolo[1,5-a]pyrimidin-7(4H)-one]
- IC50: < 100 nM

Structure (SMILES): NCc1[nH]c2c(C3=CCCCC3)c(-c3ccccc3)nn2c(=O)c1-c1ccc(O)cc1 [Compound 241, 5-(aminomethyl)-3-(cyclohex-1-en-1-yl)-6-(4-hydroxyphenyl)-2-phenylpyrazolo[1,5-a]pyrimidin-7(4H)-one]
- IC50: < 100 nM

Structure (SMILES): O=C(NCc1cc[nH]n1)c1[nH]c2c(-c3ccccc3)c(-c3ccccc3)nn2c(=O)c1-c1ccc2ncccc2c1 [Compound 328, N-((1H-pyrazol-3-yl)methyl)-7-oxo-2,3-diphenyl-6-(quinolin-6-yl)-4,7-dihydropyrazolo[1,5-a]pyrimidine-5-carboxamide]
- IC50: 1000 to 10000 nM

Structure (SMILES): COc1ccc(-c2c(Nc3cccnc3)[nH]c3c(-c4ccccc4)c(-c4ccccc4)nn3c2=O)cc1 [Compound 103, 6-(4-methoxyphenyl)-2,3-diphenyl-5-(pyridin-3-ylamino)pyrazolo[1,5-a]pyrimidin-7(4H)-one]
- IC50: < 100 nM

Structure (SMILES): O=c1c(-c2ccc(O)cc2)c(Nc2cnccn2)[nH]c2c(C3=CCCCC3)c(-c3ccccc3)nn12 [Compound 194, 3-cyclohexenyl-6-(4-hydroxyphenyl)-2-phenyl-5-(pyrazin-2-ylamino)pyrazolo[1,5-a]pyrimidin-7(4H)-one]
- IC50: < 100 nM

Structure (SMILES): NCc1[nH]c2c(-c3ccccc3)c(-c3ccccc3)nn2c(=O)c1-c1ccc2c(c1)OCCO2 [Compound 223, 5-(aminomethyl)-6-(2,3-dihydrobenzo[b][1,4]dioxin-6-yl)-2,3-diphenylpyrazolo[1,5-a]pyrimidin-7(4H)-one]
- IC50: < 100 nM

Structure (SMILES): COc1ccc(-c2c(C)[nH]c3c(N4CCC(F)(F)CC4)c(-c4ccccc4)nn3c2=O)cc1 [Compound 213, 3-(4,4-difluoropiperidin-1-yl)-6-(4-methoxyphenyl)-5-methyl-2-phenylpyrazolo[1,5-a]pyrimidin-7(4H)-one]
- IC50: < 100 nM

Structure (SMILES): COc1ccc(-c2c(Nc3ncc[nH]3)[nH]c3c(-c4ccccc4)c(-c4ccccc4)nn3c2=O)cc1 [Compound 142, 5-((1H-imidazol-2-yl)amino)-6-(4-methoxyphenyl)-2,3-diphenylpyrazolo[1,5-a]pyrimidin-7(4H)-one]
- IC50: < 100 nM

Structure (SMILES): COc1ccc(-c2c(Nc3cnc(N)cn3)[nH]c3c(-c4ccccc4)c(-c4ccccc4)nn3c2=O)cc1 [Compound 130, 5-((5-aminopyrazin-2-yl)amino)-6-(4-methoxyphenyl)-2,3-diphenylpyrazolo[1,5-a]pyrimidin-7(4H)-one]
- IC50: < 100 nM

Structure (SMILES): COc1ccc(-c2c(C)[nH]c3c(C4=CCOCC4)c(-c4ccccc4)nn3c2=O)cc1 [Compound 218, 3-(3,6-dihydro-2H-pyran-4-yl)-6-(4-methoxyphenyl)-5-methyl-2-phenylpyrazolo[1,5-a]pyrimidin-7(4H)-one]
- IC50: < 100 nM

Structure (SMILES): O=c1c(-c2ccc(O)cc2)c(Nc2cc[nH]n2)[nH]c2c(-c3ccccc3)c(-c3ccccc3)nn12 [Compound 193, 5-((1H-pyrazol-3-yl)amino)-6-(4-hydroxyphenyl)-2,3-diphenylpyrazolo[1,5-a]pyrimidin-7(4H)-one]
- IC50: < 100 nM

Other lines, results leading:

- IC50: < 100 nM
Structure (SMILES): O=c1c(-c2ccc3ncccc3c2)c(Nc2ccn[nH]2)[nH]c2c(C3=CCCCC3)c(-c3ccccc3)nn12 [Compound 190, 5-((1H-pyrazol-5-yl)amino)-3-(cyclohex-1-en-1-yl)-2-phenyl-6-(quinolin-6-yl)pyrazolo[1,5-a]pyrimidin-7(4H)-one]

- IC50: < 100 nM
Structure (SMILES): Cc1[nH]c2c(-c3ccccc3)c(-c3ccccc3)nn2c(=O)c1-c1ccc(O)cc1 [Compound 237, 6-(4-hydroxyphenyl)-5-methyl-2,3-diphenylpyrazolo[1,5-a]pyrimidin-7(4H)-one]

- IC50: < 100 nM
Structure (SMILES): COc1ccc(-c2c(N/C(N)=N/O)[nH]c3c(-c4ccccc4)c(-c4ccccc4)nn3c2=O)cc1 [Compound 200, (E)-2-hydroxy-1-(6-(4-methoxyphenyl)-7-oxo-2,3-diphenyl-4,7-dihydropyrazolo[1,5-a]pyrimidin-5-yl)guanidine]

- IC50: < 100 nM
Structure (SMILES): Cc1[nH]c2c(-c3ccccc3)c(-c3ccccc3)nn2c(=O)c1-c1ccc2nc(CN)sc2c1 [Compound 253, 6-(2-(aminomethyl)benzo[d]thiazol-6-yl)-5-methyl-2,3-diphenylpyrazolo[1,5-a]pyrimidin-7(4H)-one]

- IC50: < 100 nM
Structure (SMILES): O=c1c(-c2ccc3ncccc3c2)c(CO)[nH]c2c(C3=CCCCC3)c(-c3ccccc3)nn12 [Compound 230, 3-(cyclohex-1-en-1-yl)-5-(hydroxymethyl)-2-phenyl-6-(quinolin-6-yl)pyrazolo[1,5-a]pyrimidin-7(4H)-one]

- IC50: 100 to 1000 nM
Structure (SMILES): CNC(=O)c1[nH]c2c(-c3ccccc3)c(-c3ccccc3)nn2c(=O)c1-c1ccc2ncccc2c1 [Compound 325]

- IC50: < 100 nM
Structure (SMILES): COc1ccc(-c2c(Nc3ccnc(OC)n3)[nH]c3c(-c4ccccc4)c(-c4ccccc4)nn3c2=O)cc1 [Compound 118, 6-(4-methoxyphenyl)-5-((2-methoxypyrimidin-4-yl)amino)-2,3-diphenylpyrazolo[1,5-a]pyrimidin-7(4H)-one]

- IC50: 100 to 1000 nM
Structure (SMILES): COc1ccc(-c2c(Nc3ccccc3)[nH]c3c(-c4ccccc4)c(-c4ccccc4)nn3c2=O)cc1 [Compound 356, 6-(4-methoxyphenyl)-2,3-diphenyl-5-(phenylamino)pyrazolo[1,5-a]pyrimidin-7(4H)-one]

- IC50: < 100 nM
Structure (SMILES): Cc1[nH]c2c(N3CCCCC3)c(-c3ccccc3)nn2c(=O)c1-c1ccc2nccnc2c1 [Compound 255, 5-methyl-2-phenyl-3-(piperidin-1-yl)-6-(quinoxalin-6-yl)pyrazolo[1,5-a]pyrimidin-7(4H)-one]

- IC50: 100 to 1000 nM
Structure (SMILES): Cc1[nH]c2c(-c3ccccc3)c(-c3ccccc3)nn2c(=O)c1-c1ccc2nccnc2c1 [Compound 331, 5-methyl-2,3-diphenyl-6-(quinoxalin-6-yl)pyrazolo[1,5-a]pyrimidin-7(4H)-one]

- IC50: < 100 nM
Structure (SMILES): Cc1[nH]c2c(-c3ccccc3)c(-c3ccccc3)nn2c(=O)c1-c1ccc2c(c1)NCCO2 [Compound 258, 6-(3,4-dihydro-2H-benzo[b][1,4]oxazin-6-yl)-5-methyl-2,3-diphenylpyrazolo[1,5-a]pyrimidin-7(4H)-one]

- IC50: < 100 nM
Structure (SMILES): COc1ccc(-c2c(Nc3cncc(C#N)n3)[nH]c3c(-c4ccccc4)c(-c4ccccc4)nn3c2=O)cc1 [Compound 131, 6-(6-(4-methoxyphenyl)-7-oxo-2,3-diphenyl-4,7-dihydropyrazolo[1,5-a]pyrimidin-5-ylamino)pyrazine-2-carbonitrile]

- IC50: < 100 nM
Structure (SMILES): COc1cnc2ccc(-c3c(C)[nH]c4c(-c5ccccc5)c(-c5ccccc5)nn4c3=O)cc2n1 [Compound 254, 6-(3-methoxy-quinoxalin-6-yl)-5-methyl-2,3-diphenylpyrazolo[1,5-a]-pyrimidin-7(4H)-one]

- IC50: < 100 nM
Structure (SMILES): COc1ccc(-c2c(Nc3cc(C#N)ccn3)[nH]c3c(-c4ccccc4)c(-c4ccccc4)nn3c2=O)cc1 [Compound 114, 2-(6-(4-methoxyphenyl)-7-oxo-2,3-diphenyl-4,7-dihydropyrazolo[1,5-a]pyrimidin-5-ylamino)isonicotinonitrile]

- IC50: < 100 nM
Structure (SMILES): COc1ccc(-c2c(Nc3ccccn3)[nH]c3c(-c4cccc(Cl)c4)c(-c4ccccc4)nn3c2=O)cc1 [Compound 178, 3-(3-chlorophenyl)-6-(4-methoxyphenyl)-2-phenyl-5-(pyridin-2-ylamino)pyrazolo[1,5-a]pyrimidin-7(4H)-one]

- IC50: < 100 nM
Structure (SMILES): Cc1nc2ccc(-c3c(Nc4ccccn4)[nH]c4c(-c5ccccc5)c(-c5ccccc5)nn4c3=O)cc2s1 [Compound 196, 6-(2-methylbenzo[d]thiazol-6-yl)-2,3-diphenyl-5-(pyridin-2-ylamino)pyrazolo[1,5-a]pyrimidin-7(4H)-one]

- IC50: < 100 nM
Structure (SMILES): COc1ccc(-c2c(Nc3ccncc3)[nH]c3c(C4=CCCCC4)c(-c4ccccc4)nn3c2=O)cc1 [Compound 297, 3-(cyclohex-1-en-1-yl)-6-(4-methoxyphenyl)-2-phenyl-5-(pyridin-4-ylamino)pyrazolo[1,5-a]pyrimidin-7(4H)-one]

- IC50: < 100 nM
Structure (SMILES): COc1ccc(-c2c(Nc3ccon3)[nH]c3c(C4=CCCCC4)c(-c4ccccc4)nn3c2=O)cc1 [Compound 165, 3-(cyclohex-1-en-1-yl)-5-(isoxazol-3-ylamino)-6-(4-methoxyphenyl)-2-phenylpyrazolo[1,5-a]pyrimidin-7(4H)-one]

- IC50: < 100 nM
Structure (SMILES): COc1ccc(-c2c(Nc3ncnc(N)n3)[nH]c3c(C4=CCCCC4)c(-c4ccccc4)nn3c2=O)cc1 [Compound 164, 5-((4-amino-1,3,5-triazin-2-yl)amino)-3-(cyclohex-1-en-1-yl)-6-(4-methoxyphenyl)-2-phenylpyrazolo[1,5-a]pyrimidin-7(4H)-one]
